Experiment in all cases: DTP human tumour cell line panel, 48 h
For test [1], the system named is A549 NSCLC.
In test [2] the test system is CAKI-1 renal.
In test [3] the test system is HT29 colon.
For test [4], the system named is SF-539 CNS.
Test [5] deals with TK-10 renal.
For test [6], the system named is MDA-MB-231 breast.
For test [7], the system named is MCF7 breast.
The test system of test [8] is NCI-H23 lung.
The subject of test [9] is SF-268 CNS.
Test [10] relates to CCRF-CEM leukemia.

This note sets out measurements from PubChem BioAssay (NCI).

“And” between values parts separate entries of the source, which are not always exact repeats. Equal values may be shown once.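 How tested: cells in 96-well plates exposed to compound for 48 hours at five concentrations. GI50: concentration for 50% inhibition of growth. TGI: concentration producing complete growth inhibition.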

By TGI is commonly meant the concentration at which net growth stops. As a reminder, the GI50 is the concentration at which growth is held to half of that of the control. Consider `CC1CCC2C(C)C(=O)OC3OC4(C)CCC1C32OO4` (stereo not drawn), for which the TGI in test [1], in [2], in test [3], in test [4], in test [5] and in test [6] was more than 100 µM throughout. The TGI in test [7], in test [8], in [9] and in test [10] was more than 100 µM throughout. The GI50 in test [3], in test [5], in [7] and in test [8] was more than 100 µM each time.

As to `CCn1c(-c2nonc2N)nc2c(C#CC(C)(C)O)ncc(OC3CCNCC3)c21`, the GI50 in [1] is more than 25 µM; in test [2], more than 25 µM; in test [3] it was 8.93 µM; in test [4], 2.95 µM; in test [5], 6.6 µM; in test [6] it was 20 µM. Moreover, the GI50 in [7] was 3.93 µM; in test [8], more than 23.7 µM; in [9] it was 16.6 µM; in [10] it was 5.18 µM. Moreover, the TGI in [1], in test [2], in test [3], in [4], in [5] and in test [6] was more than 25 µM in each case. The TGI was more than 22.5 µM in [7], more than 25 µM in test [8], more than 25 µM in [9] and more than 25 µM in [10].

With `O=C(O)CCCCn1ccc(=O)[nH]c1=O`, the TGI in test [1], in [2], in [3], in [4], in test [5] and in test [6] was more than 100 µM in each case. Also, the TGI in [7], in test [8], in test [9] and in [10] was more than 100 µM each time.

Consider `CS(=O)(=O)CCNCc1ccc(-c2ccc3ncnc(Nc4ccc(OCc5cccc(F)c5)c(Cl)c4)c3c2)o1`, for which the GI50 is 7.66 µM and 5.68 µM and 5.76 µM in test [1]; 7.36 µM and 2.2 µM in test [3]; > 10 µM and 9.11 µM and 7.5 µM in test [4]; 0.17 µM and 0.176 µM and 0.0385 µM in [5]; > 10 µM and 4.14 µM and 9.07 µM in test [6]; 7.66 µM and 2.18 µM and 2.11 µM in test [7]. Besides, the GI50 in [8] is > 10 µM and 7.82 µM and 10.4 µM; in [9], > 10 µM and 5.18 µM and 11.6 µM; in test [10], > 10 µM and 2.03 µM and 1.56 µM. The TGI in [1] is > 10 µM and > 100 µM and 23.5 µM; in test [2] it was > 10 µM and > 25 µM and 27.7 µM; in test [3] it was > 10 µM and 15.8 µM; in test [4], > 10 µM and 98.1 µM and 29.9 µM; in test [5] it was > 10 µM and > 100 µM and 11.2 µM; in test [6], > 10 µM and > 100 µM and 29.5 µM. For the same molecule, the TGI in [7] was > 10 µM and 9.12 µM and 6.69 µM; in test [8], > 10 µM and > 100 µM and 31.1 µM; in [9] it was > 10 µM and > 100 µM and 43.4 µM; in test [10] it was > 10 µM and 5.67 µM and 20.7 µM.

Consider `COc1cc2c(NCCCCCO)ncnc2c(OC)c1OC`, for which the TGI in test [1], in test [2], in [3], in test [4], in [5] and in test [6] was more than 100 µM throughout. Also, the TGI in test [7], in test [8], in test [9] and in test [10] was more than 100 µM in each case.

Regarding `COc1cc(OC)cc(Oc2cnc3cc(N)cc(N)c3n2)c1`, the GI50 in test [1] is 22.8 µM; in [2], 13 µM; in [3], 13.3 µM; in test [4], 21.3 µM; in test [5] it was 16.6 µM; in [6], 6.56 µM. Also, the GI50 in [7] was 20.5 µM; in [8] it was 14.6 µM; in test [9], 15.5 µM; in test [10], 28.5 µM. Besides, the TGI is more than 100 µM in [1]; 27.7 µM in test [2]; 30.6 µM in test [3]; 43.7 µM in test [4]; 38.5 µM in test [5]; 21 µM in test [6]. Further, the TGI in [7] was 49.3 µM; in [8] it was 28.8 µM; in test [9], 31.9 µM; in [10] it was more than 100 µM.

Take `COc1ccc(-c2cc(/C=C3\C(=O)Nc4cc(Cl)ccc43)[nH]n2)cc1`: the GI50 in test [1] was 5.49 µM; in test [2], 1.63 µM; in test [3] it was 3.32 µM; in test [4], 2.41 µM; in [5] it was 7.74 µM; in [6] it was 4.09 µM. Besides, the GI50 is 2.19 µM in test [7], 4.27 µM in [8], 5.84 µM in [9] and 2.24 µM in [10]. Further, the TGI in test [1] is more than 100 µM; in test [2], 21.6 µM; in [3], 13.1 µM; in test [4], 7.52 µM; in [5], more than 100 µM; in test [6] it was more than 100 µM. In addition, the TGI in [7] is 37.3 µM; in test [8] it was more than 100 µM; in [9] it was more than 100 µM; in test [10], 28.9 µM.

With `NC(=O)c1cccc2c(N[C@H](CN3CCC3)c3ccc(Cl)c(C(F)(F)F)c3)ncnc12`, the GI50 in test [1] was 1.47 µM; in [2], 0.232 µM; in [3], 0.981 µM; in test [4], 0.154 µM; in [5] it was 0.156 µM; in [6], 2.44 µM. In addition, the GI50 in test [7] was 0.396 µM; in test [8], 3.08 µM; in test [9], 1.09 µM; in test [10], 0.871 µM. In addition, the total growth inhibition concentration (TGI) in test [1] was 12.4 µM; in test [2], 3.39 µM; in test [3], 12.1 µM; in test [4] it was 1.71 µM; in test [5] it was 3.34 µM; in [6] it was 13.7 µM. The TGI in test [7] was found to be 3.75 µM; in [8], 17 µM; in test [9] it was 12.9 µM; in [10], 12 µM.

For the molecule `N#Cc1c(NCc2ccccc2)nc(NCc2ccccc2)c(C#N)c1-c1ccc(Cl)cc1`, the GI50 in test [1] is > 50 µM and 51.5 µM; in [2], more than 100 µM; in test [3], more than 100 µM; in test [4], > 50 µM and 29 µM; in [5], > 50 µM and 62.7 µM; in [6] it was > 50 µM and 31.9 µM. Besides, the GI50 in test [7] was > 50 µM and 66.8 µM; in test [8] it was > 50 µM and 67.1 µM; in test [9], > 50 µM and 25.4 µM; in test [10] it was > 50 µM and 22.5 µM. Moreover, the TGI in test [1], in test [2], in test [3], in test [4], in test [5] and in test [6] was more than 100 µM in each case. The TGI in test [7] is more than 100 µM; in test [8], more than 100 µM; in test [9] it was > 50 µM and 80 µM; in test [10], > 50 µM and 49.5 µM.
